# According to US20120295838A1, “Selective poly-substituted glycine antibiotics and related compositions” (priority 2008, published 2012):
# Numbered stars: 1 amine (or outer) side, 2 acyl side, 3 side chain; on linkers, the order of the positions; unused ones are H or OH. Square brackets hold non-standard residues; d marks the D form. Ends that are not written are not given here. Peptide text beside a SMILES is read from it. Gly(N-CH2CH2-imidazol-4-yl) = O=C(O)CNCCc1c[nH]cn1; X1 = CC(C)[C@H](C)N(CC(=O)[*:2])[*:1]; Nspe = C[C@H](NCC(=O)O)c1ccccc1; Nphe = O=C(O)CNCc1ccccc1; Nlys = NCCCCNCC(=O)O
# Key:
# [1] = RP-HPLC solvent composition at elution as measure of molecular hydrophobicity; type: physicochemical; conditions: for HPLC elution solvent: Table 1, percent acetonitrile in water, 0.1% (v/v) TFA at HPLC elution; for % ACN at RP-HPLC elution: Table 8, gradient 5 to 95% ACN over 45 min, 0.2 ml/min, average of three replicates
# From the text: An initial set of 15 ampetoid analogs was synthesized to determine whether peptoids are affected by structural and sequence modifications in a manner consistent with AMP activities. The designs for ampetoids in this library were derived from two antibacterial and selective amphipathic dodecamers, 1 and 2. Peptoid 1 [H-(Nlys-Nspe-Nspe)4-NH2] is composed of 2/3 Nspe, the peptoid analog of phenylalanine, and 1/3 Mys, the peptoid analog of lysine (see FIG. 1 for the structures of representative peptoid monomers and corresponding N-substituents). Peptoid 2 [H-(Mys-Nssb-Nspe)4-NH2] contains 1/3 isoleucine-like Nssb monomers in place of Nspe. The variant sequences were designed to effect changes in chirality, length, hydrophobicity, charge, and amphipathicity. All of these compounds were tested for antibacterial activity against representative BSL1 Gram-negative (E. coli JM109) and Gram-positive (B. subtilis BR151) bacterial strains. As an initial measure of selectivity, the lytic activity of the peptoids was determined against human erythrocytes. Table 1 summarizes the sequences synthesized, the solvent composition at RP-HPLC elution as a relative measure of molecular hydrophobicity, and antibacterial and hemolytic activities.
# Following synthesis, peptoid oligomers can be cleaved from the resin, simultaneously removing the tert-butoxycarbonyl (Boc) protecting group from Mys residues, by treatment with 10 ml 2,2,2-trifluoroacetic acid (TFA)/triisopropylsilane/H2O (95:2.5:2.5 by volume) for 30 min. The cleavage mixture is then diluted with 25 ml 50% aqueous acetonitrile, frozen, and lyophilized. Dilution and lyophilization is repeated twice more in order to remove excess TFA. Subsequent to cleavage, peptoids are each purified to >97% homogeneity by preparative scale reversed-phase HPLC using a Waters Prep LC 4000 system, with Waters 2487 dual-wavelength UV detection, and gradient elution (solvent A, 0.1 vol % trifluoroacetic acid (TFA) in water; solvent B, 0.1 vol % TFA in acetonitrile) through a Vydac (Hysperia, Calif.) 214TP101550 C4 peptide/protein column (10-15 μm, 300 Å, 5×25 cm). Following prep HPLC, peptoid purities and crude yields were determined from analytical scale HPLC, performed with a Waters 2695 Separations Module with a Waters 2487 dual-wavelength UV detector and gradient elution (solvent A, 0.1 vol % TFA in water; solvent B, 0.1 vol % TFA in acetonitrile) through a Vydac C4 214TP53 peptide/protein column (5 μm, 300 Å, 3.2×250 mm). The precise gradient employed for HPLC depended on the identity and hydrophobicity of the oligomer in question. All analytical HPLC was performed at 0.5 ml/min flow and 58° C. Preparative HPLC was performed at 50 ml/min flow and room temperature.
# Compound synthesis and purification. Peptoids were synthesized using an ABI 433A peptide synthesizer (Applied Biosystems, Inc.) on Rink amide MBHA resin (Novabiochem, Inc.) using the submonomer approach^3. Briefly, bromoacetic acid, activated by diisopropylcarbodiimide was used to form a bromocetylated intermediate on the terminal amide group. Bromide was then substituted with the desired primary amine through SN2 displacement to build the peptoid chain. The amines used in peptoid synthesis include benzylamine, octadecylamine, (s)-(+)-2-amino-3-methylbutane, (s)-α-methylbenzylamine, (r)-(α-methylbenzylamine (all purchased from Sigma-Aldrich), and N-tert-butoxycarbonyl-1,4 diaminobutane (Mys) that was made using a published procedure^83. Resin-bound peptoids were then exposed to a mixture of trifluoroacetic acid (TFA): triisopropylsilane:water (95:2.5:2.5, v:v:v) for ten minutes to cleave peptoids from the solid phase. Peptoids were purified by reversed-phase HPLC (RP-HPLC) (Waters Corporation) using a C18 column and a linear acetonitrile/water gradient. A final purity greater than 97% as measured by analytical RP-HPLC (Waters Corporation) was achieved, and the identity of each molecule was checked using electrospray ionization mass spectrometry. […]
# [2] = test system: Proteus mirabilis ATCC 35659; assay: Broad-spectrum antibacterial MIC; type: cell-based; conditions: Table 7B; 10% hemolytic dose divided by MIC; P. mirabilis ATCC 35659
# Description: (§1) Antibacterial assays. MICs were determined according to CLSI M7-A6 protocols in a 96-well microtiter plate. In test wells, 50 uL bacterial inoculum (5×10^5 CFU/ml) in Mueller-Hinton broth (MHB) was added to 50 μL peptoid solution in MHB (prepared by 1:2 serial dilutions). Positive controls contained 50 μL inoculum and 50 μL MHB without peptoid. […] MIC values reported were reproducible between three independent experimental replicates, each consisting of two parallel trials. Broad-spectrum antimicrobial susceptibility testing was performed against BSL2 pathogens by Nova Biologicals, Inc. (Conroe, Tex.).
# (§2) Broad-spectrum antibacterial assays. MICs of compounds were determined by microdilution procedure in Mueller-Hinton broth (MHB) in accordance with CLSI M7-A6 protocols in a manner similar to that described for the screen antibacterial assays. Inoculated microtiter plates were incubated at 35° C. for 24 hours prior to the result being recorded. Four ATCC strains that were used as standards are recommended by CLSI: Pseudomonas aeruginosa ATCC 27853, Escherichia coli ATCC 25922, Staphylococcus aureus ATCC 29213 and Enterococcus faecalis ATCC 29212. Other strains from the ATCC collection include Proteus vulgaris ATCC 49132, Proteus mirabilis ATCC 35659, Klebsiella pneumoniae ATCC 33495, Enterobacter aerogenes ATCC 35029 and Serratia marcescens ATCC 13880. S. aureus NRS100 (COL) is a well characterized methicillian-resistant S. aureus (MRSA) strain. The strains S. aureus VAN1 and S. aureus VAN2, vancomycin-resistant MRSA strains that were isolated in Michigan and Pennsylvania, were the first vancomycin-resistant strains clinically isolated. S. aureus NRS 119 and S. aureus NRS 120 are linezolid-resistant isolates from the Network on Antimicrobial Resistance in S. aureus (NARSA) collection. E. faecalis 99 and E. faecium 106 are vancomycin-resistant enterococcal strains.
# [3] = test system: Serratia marcescens ATCC 13880; assay: Broad-spectrum antibacterial MIC; type: cell-based; conditions: Table 7B; 10% hemolytic dose divided by MIC; S. marcescens ATCC 13880
# Description: as §1, §2
Compound,HPLC elution solvent [1],% ACN at RP-HPLC elution ([1]; C18 column),Selectivity ratio (SR) [2],Selectivity ratio (SR) [3],"HPLC ELUTION ([1]; Table 2, percent acetonitrile in H2O, C18 column, 0.1% TFA, pH 1)","HPLC elution (% ACN) ([1]; Table 5, average of three injections, linear 5%-95% acetonitrile/water (0.1% TFA) over 45 minutes, C18 column)"
"C[C@@H](c1ccccc1)N(CC(=O)N(CCc1cnc[nH]1)CC(=O)N(CCCCN)CC(=O)N(CC(=O)N(CC(=O)N(CCCCN)CC(=O)N(CC(=O)N(CCc1cnc[nH]1)CC(N)=O)[C@@H](C)c1ccccc1)[C@@H](C)c1ccccc1)[C@@H](C)c1ccccc1)C(=O)CN(CCCCN)C(=O)CN(C(=O)CN(C(=O)CNCCCCN)[C@@H](C)c1ccccc1)[C@@H](C)c1ccccc1 [1-Nhis6,12, H-(Nlys-Nspe-Nspe-Nlys-Nspe-Nhis)2-NH2] (H-[Nlys][Nspe][Nspe][Nlys][Nspe][Gly(N-CH2CH2-imidazol-4-yl)][Nlys][Nspe][Nspe][Nlys][Nspe][Gly(N-CH2CH2-imidazol-4-yl)]-NH2)",37%,51.4 % ACN,,,,
"GIGKFLKKAKKFGKAFVKILKK-NH2 [pexiganan, reference compound]",38%,50.2 % ACN,<1.4,<1.4,38%,50.2 % ACN
"NCCCCNCC(=O)N(CC(=O)N(CC(=O)N(CCCCN)CC(=O)N(CC(=O)N(CC(=O)N(CCCCN)CC(=O)N(CC(=O)N(CC(=O)N(CCCCN)CC(=O)N(CC(=O)N(CC(N)=O)Cc1ccccc1)Cc1ccccc1)Cc1ccccc1)Cc1ccccc1)Cc1ccccc1)Cc1ccccc1)Cc1ccccc1)Cc1ccccc1 [1achiral, H-(Nlys-Npm-Npm)4-NH2] (H-[Nlys][Nphe][Nphe][Nlys][Nphe][Nphe][Nlys][Nphe][Nphe][Nlys][Nphe][Nphe]-NH2)",,60.4 % ACN,<2.4,2.4,,
"CC(C)[C@H](C)N(CC(=O)N(CC(=O)N(CCCCN)CC(=O)N(CC(=O)N(CC(=O)N(CCCCN)CC(=O)N(CC(=O)N(CC(=O)N(CCCCN)CC(=O)N(CC(=O)N(CC(N)=O)[C@@H](C)c1ccccc1)[C@@H](C)C(C)C)[C@@H](C)c1ccccc1)[C@@H](C)C(C)C)[C@@H](C)c1ccccc1)[C@@H](C)C(C)C)[C@@H](C)c1ccccc1)C(=O)CNCCCCN [1-Nsdp2,5,8,11, H-(Nlys-Nsdp-Nspe)4-NH2] (H-[Nlys][X1][Nspe][Nlys][X1][Nspe][Nlys][X1][Nspe][Nlys][X1][Nspe]-NH2)",,,<1.5,<1.5,,
